Test results reported in patent US4631287A, “Aryl and heteroaryl ethers as agents for the treatment of hypersensitive ailments” (USV Pharmaceutical Corp., priority 1985, dated 1986).

Experiments:
[1] = test system: leukotriene C4-induced contraction of guinea pig peripheral lung strips; experiment: Protocol for SRS-A Antagonists: leukotriene C4-induced contraction of guinea pig peripheral lung strips; conditions: 0.2 nM leukotriene C4, read-out: concentration required for 50% inhibition of 0.2 nM leukotriene C4-induced contraction
Experimental: Leukotrienes, the products of the 5-lipoxygenase pathway of arachidonic acid metabolism, are potent contractile agents with a variety of smooth muscle preparations. […] The following protocol describes an in vitro assay used to test compounds which specifically antagonize the actions of leukotrienes.
Protocol for SRS-A (slow reacting substance of anaphylaxis) Antagonists
Peripheral strips of guinea pig lungs are prepared and hung in tissue baths (Metro #ME-5505, 10 ml) according to the published procedure--(Proc. Nat'l Acad. Sci., U.S.A. Volume 77, pp. 4354-4358, 1980). The strips are thoroughly rinsed in Assay Buffer and then connected with surgical silk thread to support rods from the tissue baths. The rods are adjusted in the baths and the strips connected to the pressure transducers (Grass FT 103 or Gould UC-3). The tissue baths are aerated with 95% oxygen--5% carbon dioxide and maintained at 37° C. The assay buffer has been made as follows: for each liter of buffer the following are added to approximately 800 ml of water distilled in glass-6.87 g NaCl, 0.4 g KCl, 2.1 g NaHCO3, 0.14 g NaH2 PO4.H2 O, 0.21 g MgSO4.7H2 O, and 2.0 g D-glucose. […]
Responses of each tissue to a pre-determined concentration of leukotriene are then obtained. […] The intrinsic activity of the compounds, and their effect on leukotriene-induced contractions are then recorded.

[2] = test system: lipoxygenase pathway (5-HETE production in rat neutrophils); experiment: Protocol for Detecting Inhibitors of the Lipoxygenase Pathway (5-HETE production in rat neutrophils); type: cell-based; conditions: Neutrophil, 0.05 h, [14C]-arachidonic acid and Calcium Ionophore A23187, 3 minutes at 30° C., 5-HETE produced, read-out: I50
Experimental: The following protocol describes an assay to detect inhibitors of the lipoxygenase pathway. Such inhibitors are believed to be capable of modulating the biosynthesis of the leukotrienes, a property believed to be useful in treating asthma and inflammatory disease states.
Protocol for Detecting Inhibitors of the Lipoxygenase Pathway
A suspension of rat neutrophils in buffer is incubated for 3 minutes at 30° C. with [^14 C]-arachidonic acid (AA) and Calcium Ionophore A23187. Citric acid (2M) is used to quench the reaction. Following the addition of a trace amount of (^3 H)-5-HETE together with an excess of unlabeled 5-HETE to each tube, the mixture is extracted with chloroform/methanol. The organic layer is washed with dilute acid and an aliquot is transferred to glass tubes and dried. […] After adjusting for the extraction efficiency, the amount (pmole) of [^14 C]-5-HETE in each of the tubes is quantitated by substracting the net pmoles of 5-HETE in the tubes containing buffer alone (blank) from the pmoles of 5-HETE in the tubes containing […]. The ability of the test compounds to modulate the activity of this enzyme is determined by a decrease or increase in the net amount of 5-HETE produced.

[3] = test system: SRS-A component of anaphylactic bronchoconstriction; experiment: Bronchial Anaphylaxis in Guinea Pigs with Enhanced Leukotrienes (BAGEL); type: in vivo, guinea pig; conditions: 100 mg/kg, i.d., guinea pigs immunized with ovalbumin
Experimental: Protocol for in vivo Testing of Modulators of SRS-A (slow reacting substances of anaphylaxis)
This test, known as the Bronchial Anaphylaxis in Guinea Pigs with Enhanced Leukotrienes (BAGEL), is based on the procedure published in Agents and Actions, Vol. II, pp. 396-401, 1981, and is performed with guinea pigs actively immunized (14 days) with ovalbumin (2.7 mg/kg, i.p.) and B. pertussis (5×10^9 organisms) as an adjuvant. Prior to challenge with antigen (ovalbumin), the animals are anesthetized and prepared for monitoring pulmonary dynamics by whole body plethysmography. They are treated with an H1 antihistamine (methapyrilene, 2 mg/kg, i.v.) and cyclooxygenase inhibitor (indomethacin; 20 mg/kg, i.p.) in order to enhance the SRS-A component of anaphylactic bronchoconstriction. Bronchoconstriction is quantified as the maximum increase in airway resistance following antigen challenge. The drug is administered either i.p. 10 minutes before challenge, or i.d. 15 minutes before challenge.

In the case of `c1ccc(OCc2ccc3ccccc3n2)cc1` [2-Phenoxymethyl quinoline], the IC50 [1] is reported as 900 nM, the IC50 [2] is reported as 500 nM and the “activity in BAGEL test (bronchoconstriction following antigen challenge)” value [3] is reported as “highly active”.
`COc1ccc(OCc2ccc3ccccc3n2)cc1` [2-(p-methoxyphenoxymethyl) quinoline, 2-(p-Methoxyphenoxymethyl) quinoline] was tested, and the IC50 [1] was 300 nM and the IC50 [2] was 700 nM.
